Test results reported in patent publication US20260193293A1, “PEPTIDES CAPABLE OF INHIBITING PROTEIN-PROTEIN INTERACTIONS AT GABAB1A SUBUNIT AND USES THEREOF” (UNIVERSITY OF COPENHAGEN, priority 2022, published 2026).
Where “and” joins values, the source holds several entries; their conditions need not be identical. Identical values can stand only once. Like-named read-outs stand apart in the source and are kept apart here. Blank lines part the entries; values can stand above or below the compound they belong to. Non-standard residues stand in square brackets, D forms with d. Residues, ends and D or L forms follow the SMILES beside them. Phe(4-F) = N[C@@H](Cc1ccc(F)cc1)C(=O)O; NMeT = CN[C@H](C(=O)O)[C@@H](C)O; NMeD = CN[C@@H](CC(=O)O)C(=O)O; Sar = CNCC(=O)O

Biological target: Sushi domains (SD1/2) protein
Experiment: Fluorescence polarization (FP) competition assay with AJAP-1probe, calculated Ki
Assay type: binding
Procedure: Fluorescence polarization (FP). FP assay was employed to determine the binding affinity of peptides in flat bottom black 384-well plates (Corning Life Science) using a Safire2 plate reader (Tecan). All experiments were conducted in 1×PBS (pH 7.4) containing 1% bovine serum albumin (BSA) at rt. The fluorescence polarization values were measured using excitation/emission wavelengths of 530/580 nm. The instrumental Z-factor was adjusted to obtain the maximum fluorescence intensity and the G-factor was calibrated to give an initial millipolarization value of 20 mP. All FP assays including saturation or competition experiments were performed using 25 nM of TAMRA labeled peptides as probes. For saturation assay, the millipolarization values were measured after mixing of probes with 12 serial 1 to 1 diluted concentrations of Sushi domains (SD1/2) protein. All experiments were performed in triplicate and the data were plotted to the one-site binding model using GraphPad Prism 9 to calculate the Kd of probes. […] The experiments were performed at least in triplicate and the data were fitted to the sigmoidal dose response curve using GraphPad Prism 9 to obtain the IC50 of peptides. The Ki values were calculated according to Nikolovska-Coleska et al^310.

[1] = Table 8, Ala-, D-amino acids and N-methylation scans of AJAP-1WT, read-out: Ki (nM) mean ± SEM
[2] = Table 4, truncation and elongation scans of APP epitope, read-out: Ki (nM) mean ± SEM
[3] = Table 6, elongation and truncation scan of PIANP binding epitope, read-out: Ki (nM) mean ± SEM
[4] = Table 13, peptides for affinity maturation, read-out: Ki (nM) mean ± SEM

Compound: CC(=O)N[C@@H](CC(=O)O)C(=O)N[C@@H](CC(=O)O)C(=O)N[C@@H](CO)C(=O)N[C@@H](CC(=O)O)C(=O)N[C@H](C(=O)N[C@@H](Cc1c[nH]c2ccccc12)C(=O)N[C@@H](Cc1c[nH]c2ccccc12)C(=O)NCC(=O)NCC(=O)N[C@@H](C)C(=O)N[C@@H](CC(=O)O)C(=O)N[C@H](C(=O)N[C@@H](CC(=O)O)C(=O)N[C@@H](Cc1ccc(O)cc1)C(=O)N[C@@H](C)C(=O)N[C@@H](CC(=O)O)C(N)=O)[C@@H](C)O)C(C)C (Ac-DDSDVWWGGADTDYAD-NH2)
Ki [2]: 517 ± 16 nM

Compound: CC[C@H](C)[C@H](NC(=O)[C@H](C)NC(=O)[C@H](Cc1c[nH]c2ccccc12)NC(=O)[C@@H]1CCCN1C(C)=O)C(=O)N[C@H](C(=O)N[C@@H](Cc1c[nH]c2ccccc12)C(=O)NCC(=O)N1CCC[C@H]1C(=O)N(C)[C@H](C(=O)N[C@H](C(=O)N[C@@H](CO)C(=O)N[C@@H](CCCNC(=N)N)C(=O)N[C@@H](CCC(=O)O)C(=O)N[C@@H](CC(=O)O)C(N)=O)C(C)C)[C@@H](C)O)C(C)C (Ac-PWAIVWGP[NMeT]VSRED-NH2)
Ki (Table 9, Ala-, D-amino acids and N-methylation scans of PIANPWT, read-out: Ki (nM) mean ± SEM): 1260 ± 27 nM

Compound: EDDS(Fphe)VWWGGADTD (Ac-EDDS[Phe(4-F)]VWWGGADTD-NH2)
Ki (Table 16, ncAAs incorporated peptides, read-out: Ki (nM) mean ± SEM): 117 ± 2 nM

Compound: CC(=O)N[C@H](C(=O)N[C@@H](Cc1c[nH]c2ccccc12)C(=O)N[C@@H](Cc1c[nH]c2ccccc12)C(=O)NCC(=O)NCC(=O)N[C@@H](C)C(=O)N[C@@H](CC(=O)O)C(=O)N[C@H](C(=O)N[C@@H](CC(=O)O)C(=O)N[C@@H](Cc1ccc(O)cc1)C(=O)N[C@@H](C)C(=O)N[C@@H](CC(=O)O)C(N)=O)[C@@H](C)O)C(C)C (Ac-VWWGGADTDYAD-NH2)
Ki [2]: 60800 ± 5220 nM

Compound: CC(=O)N[C@@H](CCC(=O)O)C(=O)N[C@@H](CCC(=O)O)C(=O)N[C@@H](CC(=O)O)C(=O)N[C@@H](CC(=O)O)C(=O)N[C@@H](CO)C(=O)N[C@@H](CC(=O)O)C(=O)N[C@H](C(=O)N[C@@H](Cc1c[nH]c2ccccc12)C(=O)N[C@@H](Cc1c[nH]c2ccccc12)C(=O)NCC(=O)NCC(=O)N[C@@H](C)C(=O)N[C@@H](CC(=O)O)C(=O)N[C@H](C(=O)N[C@@H](CC(=O)O)C(=O)N[C@@H](Cc1ccc(O)cc1)C(N)=O)[C@@H](C)O)C(C)C (Ac-EEDDSDVWWGGADTDY-NH2)
Ki [2]: 301 ± 7 nM

Compound: CC(=O)N[C@@H](CCC(=O)O)C(=O)N[C@@H](CC(=O)O)C(=O)N[C@@H](CC(=O)O)C(=O)N[C@@H](CO)C(=O)N[C@@H](CC(=O)O)C(=O)N[C@H](C(=O)N[C@@H](Cc1c[nH]c2ccccc12)C(=O)N[C@@H](Cc1c[nH]c2ccccc12)C(=O)NCC(=O)NCC(=O)N[C@@H](C)C(=O)N[C@@H](CC(=O)O)C(=O)N[C@H](C(=O)N(C)[C@@H](CC(=O)O)C(N)=O)[C@@H](C)O)C(C)C (Ac-EDDSDVWWGGADT[NMeD]-NH2)
Ki (Table 7, Ala-, D-amino acids and N-methylation scans of APPWT, read-out: Ki (nM) mean ± SEM): 565 ± 23 nM

Compound: CC(=O)N[C@@H](CCC(=O)O)C(=O)N[C@@H](CC(=O)O)C(=O)N[C@@H](CC(=O)O)C(=O)N[C@@H](CO)C(=O)N[C@@H](CC(=O)O)C(=O)N[C@H](C(=O)N[C@@H](Cc1c[nH]c2ccccc12)C(=O)N[C@@H](Cc1c[nH]c2ccccc12)C(=O)N[C@@H](Cc1ccc(O)cc1)C(=O)N(C)CC(=O)N[C@H](C(=O)NCC(=O)N[C@@H](CC(=O)O)C(=O)N[C@@H](CCC(=O)O)C(=O)N[C@@H](CC(=O)O)C(N)=O)[C@@H](C)O)C(C)C (Ac-EDDSDVWWY[Sar]TGDED-NH2)
Ki [4]: 142 ± 3 nM

Next, values leading:

Ki (purified peptides, read-out: Ki): 581 nM
Compound: CC(=O)N[C@@H](CCC(=O)O)C(=O)N[C@@H](CC(=O)O)C(=O)N[C@@H](CC(=O)O)C(=O)N[C@@H](CO)C(=O)N[C@@H](CC(=O)O)C(=O)N[C@H](C(=O)N[C@@H](Cc1c[nH]c2ccccc12)C(=O)N[C@@H](Cc1c[nH]c2ccccc12)C(=O)NCC(=O)NCC(=O)N[C@@H](C)C(=O)N[C@@H](CC(=O)O)C(=O)N[C@H](C(=O)N[C@@H](CC(=O)O)C(=O)N[C@@H](Cc1ccc(O)cc1)C(N)=O)[C@@H](C)O)C(C)C [Peptide 13] (Ac-EDDSDVWWGGADTDY-NH2)

Ki [1]: 44 ± 1 nM
Compound: CC[C@H](C)[C@H](NC(=O)[C@H](Cc1ccccc1)NC(=O)[C@H](CCC(=O)O)NC(=O)[C@@H](NC(=O)[C@H](CCC(=O)O)NC(C)=O)[C@@H](C)O)C(=O)N[C@@H](C)C(=O)N[C@@H](Cc1c[nH]c2ccccc12)C(=O)NCC(=O)N1CCC[C@H]1C(=O)N[C@H](C(=O)NCC(=O)N[C@@H](CC(=O)O)C(=O)N[C@@H](CCC(=O)O)C(=O)N[C@@H](C)C(N)=O)[C@@H](C)O (Ac-ETEFIAWGPTGDEA-NH2)

Ki (Table 3, SPOT hit validation and previously reported peptides, read-out: Ki (nM) mean ± SEM): 244 ± 13 nM | Ki (Table 4, truncation and elongation scans of APP epitope, listed as EEDDSDVWWGGADTDYAD, read-out: Ki (nM) mean ± SEM): 244 nM and 233 nM
Compound: CC(=O)N[C@@H](CCC(=O)O)C(=O)N[C@@H](CCC(=O)O)C(=O)N[C@@H](CC(=O)O)C(=O)N[C@@H](CC(=O)O)C(=O)N[C@@H](CO)C(=O)N[C@@H](CC(=O)O)C(=O)N[C@H](C(=O)N[C@@H](Cc1c[nH]c2ccccc12)C(=O)N[C@@H](Cc1c[nH]c2ccccc12)C(=O)NCC(=O)NCC(=O)N[C@@H](C)C(=O)N[C@@H](CC(=O)O)C(=O)N[C@H](C(=O)N[C@@H](CC(=O)O)C(=O)N[C@@H](Cc1ccc(O)cc1)C(=O)N[C@@H](C)C(=O)N[C@@H](CC(=O)O)C(N)=O)[C@@H](C)O)C(C)C [Peptide 36] (Ac-EEDDSDVWWGGADTDYAD-NH2)

Ki [3]: 650 ± 9 nM
Compound: CC[C@H](C)[C@H](NC(=O)[C@H](C)NC(=O)[C@H](Cc1c[nH]c2ccccc12)NC(=O)[C@@H]1CCCN1C(C)=O)C(=O)N[C@H](C(=O)N[C@@H](Cc1c[nH]c2ccccc12)C(=O)NCC(=O)N1CCC[C@H]1C(=O)N[C@H](C(=O)N[C@H](C(=O)N[C@@H](CO)C(=O)N[C@@H](CCCNC(=N)N)C(=O)N[C@@H](CCC(=O)O)C(N)=O)C(C)C)[C@@H](C)O)C(C)C (Ac-PWAIVWGPTVSRE-NH2)

Ki [1]: 37 ± 2 nM
Compound: CC[C@H](C)[C@H](NC(=O)[C@H](Cc1ccccc1)NC(=O)[C@H](CCC(=O)O)NC(=O)[C@H]([C@@H](C)O)N(C)C(=O)[C@H](CCC(=O)O)NC(C)=O)C(=O)N[C@@H](C)C(=O)N[C@@H](Cc1c[nH]c2ccccc12)C(=O)NCC(=O)N1CCC[C@H]1C(=O)N[C@H](C(=O)NCC(=O)N[C@@H](CC(=O)O)C(=O)N[C@@H](CCC(=O)O)C(=O)N[C@@H](CC(=O)O)C(N)=O)[C@@H](C)O [E(N-Me-T)EFIAWGPTGDED] (Ac-E[NMeT]EFIAWGPTGDED-NH2)

Ki (Table 10, deep mutational scanning validation variants of APPWT, read-out: Ki (nM) mean ± SEM): 951 ± 20 nM
Compound: CC[C@H](C)[C@H](NC(=O)[C@@H](NC(=O)[C@H](CC(=O)O)NC(=O)[C@H](CO)NC(=O)[C@H](CC(=O)O)NC(=O)[C@H](CC(=O)O)NC(=O)[C@H](CCC(=O)O)NC(C)=O)C(C)C)C(=O)N[C@@H](Cc1c[nH]c2ccccc12)C(=O)NCC(=O)NCC(=O)N[C@@H](C)C(=O)N[C@@H](CC(=O)O)C(=O)N[C@H](C(=O)N[C@@H](CC(=O)O)C(N)=O)[C@@H](C)O (Ac-EDDSDVIWGGADTD-NH2)

Ki (Table 1, affinity maturation, mean ± SEM, n ≥ 3, read-out: Ki): 32 ± 2 nM | Ki [1]: 32 ± 2 nM | Ki [4]: 32 ± 2 nM
Compound: CC[C@H](C)[C@H](NC(=O)[C@H](Cc1ccccc1)NC(=O)[C@H](CCC(=O)O)NC(=O)[C@@H](NC(=O)[C@H](CCC(=O)O)NC(C)=O)[C@@H](C)O)C(=O)N[C@@H](C)C(=O)N[C@@H](Cc1c[nH]c2ccccc12)C(=O)NCC(=O)N(C)CC(=O)N[C@H](C(=O)NCC(=O)N[C@@H](CC(=O)O)C(=O)N[C@@H](CCC(=O)O)C(=O)N[C@@H](CC(=O)O)C(N)=O)[C@@H](C)O [Peptide 38] (Ac-ETEFIAWG[Sar]TGDED-NH2)

Ki (CPP tagged peptides overview, SD1/2 binding affinity, mean ± SEM, n ≥ 3, read-out: Ki): 147 ± 9 nM | Ki (Table 14, CPPs tagged peptides, read-out: Ki (nM) mean ± SEM): 147 ± 9 nM
Compound: CC[C@H](C)[C@H](NC(=O)[C@H](Cc1c[nH]c2ccccc12)NC(=O)[C@H](CC(=O)O)NC(=O)[C@H](CC(=O)O)NC(=O)[C@H](CC(=O)O)NC(=O)[C@H](CCC(=O)O)NC(C)=O)C(=O)N[C@@H](CC(=O)O)C(=O)N[C@@H](Cc1c[nH]c2ccccc12)C(=O)NCC(=O)N1CCC[C@H]1C(=O)N[C@H](C(=O)N[C@@H](CO)C(=O)N[C@@H](CC(=O)O)C(=O)N[C@@H](CC(=O)O)C(=O)N[C@@H](CC(=O)O)C(=O)NCC(=O)NCC(=O)NCC(=O)NCC(=O)N[C@@H](CO)C(=O)N[C@@H](CCCNC(=N)N)C(=O)N[C@@H](CCCNC(=N)N)C(=O)N[C@@H](CCCNC(=N)N)C(=O)N[C@@H](CCCNC(=N)N)C(=O)N[C@@H](CCCNC(=N)N)C(=O)N[C@@H](CCCNC(=N)N)C(=O)N[C@@H](CCCNC(=N)N)C(=O)N[C@@H](CCCNC(=N)N)C(N)=O)[C@@H](C)O [Peptide 17-FL-R8] (Ac-EDDDWIDWGPTSDDDGGGGSRRRRRRRR-NH2)

Ki [3]: 5550 ± 11 nM
Compound: CC[C@H](C)[C@H](NC(=O)[C@H](C)NC(C)=O)C(=O)N[C@H](C(=O)N[C@@H](Cc1c[nH]c2ccccc12)C(=O)NCC(=O)N1CCC[C@H]1C(=O)N[C@H](C(=O)N[C@H](C(=O)N[C@@H](CO)C(=O)N[C@@H](CCCNC(=N)N)C(=O)N[C@@H](CCC(=O)O)C(=O)N[C@@H](CC(=O)O)C(=O)NCC(N)=O)C(C)C)[C@@H](C)O)C(C)C (Ac-AIVWGPTVSREDG-NH2)
